A short description of series [1]: Metabolic stability in rat liver microsomes after 10 mins. It counts as ADME, Microsome. Particulars: read-out: Stability. (Microsomes from liver hold many membrane-bound enzymes, among them those of drug oxidation.)
Series [2] can be described thus: Metabolic stability in human liver microsomes after 10 mins. The series is classed as ADME, Microsome. Particulars: read-out: Stability.
Series [3] addresses Macrophage colony-stimulating factor 1 receptor (Homo sapiens, UniProt P07333).
Series [4] can be described thus: Oral bioavailability in Sprague-Dawley rat at 10 mg/kg. The series is classed as ADME, organism-based. Particulars: in vivo.
The nature of series [5]: Half life in Sprague-Dawley rat at 2 mg/kg, iv. It counts as ADME, organism-based. Also noted: dose 2 mg/kg, route intravenous. Particulars: in vivo.
Series [6] can be described thus: Clearance in Sprague-Dawley rat at 2 mg/kg, iv. It counts as ADME, organism-based. Also noted: dose 2 mg/kg, route intravenous. Particulars: in vivo.
Series [7] in a line: Volume of distribution at steady state in Sprague-Dawley rat at 2 mg/kg, iv. Particulars: in vivo, read-out: Vdss. It counts as ADME, organism-based. More on the design: dose 2 mg/kg, route intravenous.
Series [8] in a line: Cmax in Sprague-Dawley rat at 10 mg/kg, po. The series is classed as ADME, organism-based. More on the design: dose 10 mg/kg, route oral. Particulars: in vivo.

A word on the IC50: it is the concentration that inhibits the measured activity by half. A low value points to greater potency. For orientation: bioavailability means the share of a dose that reaches the circulation, judged against a reference dose that is usually intravenous. A low value points to poor availability. Usually half-life stands for the time needed for the level to fall by half in the phase considered. Low values mean rapid decline, high ones slow decline. One may read the clearance as a measure of how efficiently the substance is removed, as volume per time. As usually defined, the Cmax is the highest concentration seen after dosing.

Macrophage colony-stimulating factor 1 receptor, sequence (P07333 whole entry): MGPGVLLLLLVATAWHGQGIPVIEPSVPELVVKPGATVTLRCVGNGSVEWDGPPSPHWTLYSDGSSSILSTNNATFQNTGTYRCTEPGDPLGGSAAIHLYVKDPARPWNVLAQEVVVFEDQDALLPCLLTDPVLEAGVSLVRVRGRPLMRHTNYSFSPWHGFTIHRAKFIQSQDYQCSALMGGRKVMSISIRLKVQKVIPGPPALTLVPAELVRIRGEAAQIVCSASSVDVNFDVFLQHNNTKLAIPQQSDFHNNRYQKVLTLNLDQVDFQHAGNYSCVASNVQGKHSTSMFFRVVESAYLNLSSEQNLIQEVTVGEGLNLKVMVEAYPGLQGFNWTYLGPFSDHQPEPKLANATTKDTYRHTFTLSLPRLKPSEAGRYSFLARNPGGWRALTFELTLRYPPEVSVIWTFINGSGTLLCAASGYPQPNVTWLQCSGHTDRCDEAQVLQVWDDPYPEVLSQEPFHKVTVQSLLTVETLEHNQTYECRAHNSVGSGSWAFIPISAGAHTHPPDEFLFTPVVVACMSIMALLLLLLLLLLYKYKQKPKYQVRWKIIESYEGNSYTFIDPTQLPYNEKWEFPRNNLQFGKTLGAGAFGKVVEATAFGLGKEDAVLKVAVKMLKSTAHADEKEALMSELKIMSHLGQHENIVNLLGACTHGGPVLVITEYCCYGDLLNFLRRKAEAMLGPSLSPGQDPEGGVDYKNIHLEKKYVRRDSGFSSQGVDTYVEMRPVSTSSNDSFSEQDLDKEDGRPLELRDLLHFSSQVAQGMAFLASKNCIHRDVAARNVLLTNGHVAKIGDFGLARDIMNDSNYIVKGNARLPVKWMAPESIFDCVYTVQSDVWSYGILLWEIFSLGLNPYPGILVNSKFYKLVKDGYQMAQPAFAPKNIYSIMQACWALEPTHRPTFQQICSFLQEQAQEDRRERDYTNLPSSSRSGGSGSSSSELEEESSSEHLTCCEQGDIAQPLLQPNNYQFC

Turning to `CONC(=O)c1cn(-c2ccc3c(c2)CCC3)c2nc(Nc3ccc(CCN4CCN(C)C(=O)C4)cc3)ncc2c1=O`, the remaining at 10 min worked out at 29% in series [1] and 2.8% in series [2]. This compound had an IC50 in series [3] of 0.8 nM.

On to `CONC(=O)c1cn(-c2ccc3c(c2)CCC3)c2nc(Nc3ccc(CCS(=O)(=O)NC(C)=O)cc3)ncc2c1=O`, for which the remaining at 10 min in series [1] was determined as 83%; in series [2], 84%.

In turn, `CONC(=O)c1cn(-c2ccc3c(c2)CCC3)c2nc(NCc3ccccc3)ncc2c1=O` showed an IC50 in series [3] of 75 nM.

Regarding `CONC(=O)c1cn(-c2ccc3c(c2)CCC3)c2nc(Nc3ccc(CCN4CCC(F)(F)CC4)cc3)ncc2c1=O`, the figures for the remaining at 10 min in series [1] and in series [2] were 86% and 83%, respectively.

For the compound `CONC(=O)c1cn(-c2ccc3c(c2)CCC3)c2nc(Nc3ccc(C4CCN(C)CC4(F)F)cc3)ncc2c1=O` (configuration not stated), the results for the remaining at 10 min in series [1] and in series [2] were 44% and 16%, respectively. This compound also came in with an IC50 in series [3] of 0.7 nM.

For `CNC(=O)c1cn(-c2ccc3c(c2)CCC3)c2nc(Nc3ccc(CCN4CCN(C)CC4)cc3)ncc2c1=O`, the remaining at 10 min in series [1] was 73%. Also, the IC50 in series [3] amounted to 1.2 nM.

In the case of `CCCCNc1ncc2c(=O)c(C(=O)NOC)cn(-c3ccc4c(c3)CCC4)c2n1`, half-maximal inhibition in series [3] (IC50) required 15 nM.

The compound `CCc1cccc(-n2cc(C(=O)NOC)c(=O)c3cnc(Nc4ccc(C5CCN(C)CC5)cc4)nc32)c1` registered an IC50 in series [3] of 0.4 nM.

Consider `CONC(=O)c1cn(C2CCC(C)(C)CC2)c2nc(Nc3ccc(C4CCN(C)CC4)cc3)ncc2c1=O`, for which the results for the remaining at 10 min in series [1] and in series [2] were 97% and 93%, respectively.

On to `CN1CCN(CCc2ccc(Nc3ncc4c(=O)c(C(=O)NCCO)cn(-c5ccc6c(c5)CCC6)c4n3)cc2)CC1`, for which the remaining at 10 min in series [1] worked out at 84%. The compound also gave an IC50 in series [3] of 0.7 nM.

In series [4], `CONC(=O)c1cn(-c2ccc3c(c2)CCC3)c2nc(Nc3ccc(C4CCN(CCO)CC4)cc3)ncc2c1=O` returned a bioavailability of 8%. In series [5], the half-life is 3 h. Also, the remaining at 10 min came to 100% in series [1] and 80% in series [2]. This compound also came in with a clearance in series [6] of 2.04 L/h/kg. Further, in series [7], the Vd was determined as 8.8 L/kg. The peak level in series [8] (Cmax) was 0.13 µM.

Consider `CC(C)ONC(=O)c1cn(-c2ccc3c(c2)CCC3)c2nc(Nc3ccc(CCN4CCN(C)CC4)cc3)ncc2c1=O`, for which, in series [1], the remaining at 10 min was 100%. Also, in series [3], half-maximal inhibition (IC50) required 0.5 nM.

As to `CCONC(=O)c1cn(-c2ccc3c(c2)CCC3)c2nc(Nc3ccc(CCN4CCN(C)CC4)cc3)ncc2c1=O`, the remaining at 10 min in series [1] stood at 84%.

For `CONC(=O)c1cn(-c2ccc3c(c2)CCC3)c2nc(Nc3ccc(CCN4CCOCC4)cc3)ncc2c1=O`, the remaining at 10 min in series [1] was found to be 24%; in series [2], 5.4%.

With `CONC(=O)c1cn(-c2ccc3c(c2)CCC3)c2nc(Nc3ccc(C4CCNCC4)cc3)ncc2c1=O`, the remaining at 10 min came to 93% in series [1] and 97% in series [2]. Besides, inhibition in series [3] was half-maximal at 0.5 nM (IC50).

On to `CN1CCN(c2ccc(Nc3ncc4c(=O)c(C(N)=O)cn(-c5ccc6c(c5)CCC6)c4n3)cc2)CC1`, for which, in series [4], the bioavailability turned out to be 0%.

The compound `CONC(=O)c1cn(-c2ccc3c(c2)CCC3)c2nc(Nc3ccc(OC)nc3)ncc2c1=O` had an IC50 in series [3] of 5.2 nM.

As for `CCNC(=O)c1cn(-c2ccc3c(c2)CCC3)c2nc(Nc3ccc(CCN4CCN(C)CC4)cc3)ncc2c1=O`, it took 3.2 nM to reach half-maximal inhibition in series [3] (IC50).

For the compound `CCN1CCCC(O)(c2cccc(Nc3ncc4c(=O)c(C(=O)NOC)cn(-c5ccc6c(c5)CCC6)c4n3)c2)C1` (configuration not stated), in series [4], the bioavailability is 28%. The same compound had a half-life in series [5] of 5.2 h. Also, the figures for the remaining at 10 min in series [1] and in series [2] were 89% and 88%, respectively. This compound returned a clearance in series [6] of 1.22 L/h/kg. For the same compound, the Vd in series [7] is 5.6 L/kg. For the same compound, the Cmax in series [8] worked out at 0.4 µM.

`CONC(=O)c1cn(C2CCCCC2)c2nc(Nc3ccc(C4CCN(C)CC4)cc3)ncc2c1=O`: the remaining at 10 min in series [1] came out at 68%; in series [2], 96%. The IC50 in series [3] turned out to be 5 nM.

(Values after ChEMBL document CHEMBL1140940, “Pyrido[2,3-d]pyrimidin-5-ones: a novel class of antiinflammatory macrophage colony-stimulating factor-1 receptor inhibitors” (J Med Chem, 2009).)
